Experimental data taken from paper PMC4481774, “Discovery of a non-cationic cell penetrating peptide derived from membrane-interacting human proteins and its potential as a protein delivery carrier” (Scientific Reports, 2015).
Where two headings read alike, the source gives them in different places. Where no end group is shown, it is not given here. The star is where a group is joined. FITC = O=C1OC2(c3ccc(O)cc3Oc3cc(O)ccc32)c2ccc(NC(=S)*)cc21

Tests used:
[1] = system: HeLa cells; test: Cellular uptake of FITC-labeled CPPs by flow cytometry; format: cell-based, Human; conditions: for order of potency in intracellular translocation (dose-dependent uptake): 0, 0.5, 1, 2.5, 5 and 10 μM; for order of potency in intracellular translocation (dose-dependent uptake) / cellular uptake efficiency: average of three independent experiments; for cellular uptake efficiency: 1 μM peptide, flow cytometry MFI, serum-containing DMEM, 37 °C
Description: For assessing the uptake of CPP candidates by HeLa cells, cells were seeded onto 6-well plates (1.0 × 10^6 cells/well). […] Cells were washed two times with phosphate-buffered saline (PBS), incubated in trypsin-EDTA solution (0.01% trypsin) at 37 °C for 10 min to digest extracellular proteins, washed two times with ice-cold PBS, and finally resuspended in 500 μL of ice-cold PBS for flow cytometry assays. For endocytosis inhibitor treatments, cells were pre-incubated with various inhibitors (50 μg heparin, 50 μM CPZ, 100 μM CQ, 1 mM MβCD, 30 μg dynasore, or 50 μM EIPA) in serum-containing medium for 30 min before AA3H (1 μM) was added. The sample for flow cytometry analysis was prepared as described above. For the analysis of peptide internalization, a GUAVA flow cytometry system (Merck Millipore, Darmstadt, Germany) with the FL-1 channel for measuring fluorescence in GuavaSoft 2.6 was used according to the manufacturer’s instructions.

[2] = system: Raw 264.7 cells; test: Immunogenicity assay (IL-6 release, ELISA); format: cell-based, Murine; conditions: 24 h; AA3H 10 μM or LPS 10 μg/mL; mouse IL-6 ELISA; average of three; non-treated control 20 pg/mL
Description: Raw 264.7 cells were seeded into 24-well plates and cultured for 24 h. Cells were grown to 80% confluence and treated with lipopolysaccharides (LPS, 10 μg/mL) as a positive control. After incubation of AA3H peptide (10 μM) with cells for 24 h, supernatants were transferred to 1.5 mL tubes and centrifuged at 10,000 × g for 10 min at 4 °C. For the detection of interleukin-6 (IL-6) a mouse IL-6 ELISA kit (Thermo Scientific, Waltham, MA, USA) was used. Results from triplicate experiments were analyzed by Prism software (GraphPad, La Jolla, CA, USA). Data are presented as mean ± standard deviation (SD).

[3] = system: HeLa cells; test: Intracellular uptake of CPPs in the presence or absence of serum, flow cytometry; format: cell-based, Human; conditions: peptide 1 μM, with or without 10% mouse serum, 4 h
Description: Samples were prepared as described for cellular uptake above.

[4] = system: cells; conditions: uptake kinetics of TAT; cited from earlier work
[5] = system: HeLa cells; test: Cellular uptake mechanism of AA3H (heparin, low temperature, endocytosis inhibitors), flow cytometry; format: cell-based, Human
Description: For assessing the uptake of CPP candidates by HeLa cells, cells were seeded onto 6-well plates (1.0 × 10^6 cells/well). After 24 h, cells were washed two times with serum-free DMEM and incubated with CPPs at indicated concentrations (0.1, 1, 10 μM) in serum-containing DMEM at 37 °C. Cells were washed two times with phosphate-buffered saline (PBS), incubated in trypsin-EDTA solution (0.01% trypsin) at 37 °C for 10 min to digest extracellular proteins, washed two times with ice-cold PBS, and finally resuspended in 500 μL of ice-cold PBS for flow cytometry assays. For endocytosis inhibitor treatments, cells were pre-incubated with various inhibitors (50 μg heparin, 50 μM CPZ, 100 μM CQ, 1 mM MβCD, 30 μg dynasore, or 50 μM EIPA) in serum-containing medium for 30 min before AA3H (1 μM) was added. The sample for flow cytometry analysis was prepared as described above. For the analysis of peptide internalization, a GUAVA flow cytometry system (Merck Millipore, Darmstadt, Germany) with the FL-1 channel for measuring fluorescence in GuavaSoft 2.6 was used according to the manufacturer’s instructions.

[6] = system: HeLa cells; test: Subcellular localization by confocal fluorescence microscopy; format: cell-based, Human; conditions: AA3H 1 μM, 4 h, organelle-specific staining
Description: To visualize the cellular uptake of a peptide using confocal fluorescence microscopy, HeLa cells were seeded onto confocal bottom dish 35-mm plates (SPL, Gyeonggi-do, Korea) and incubated with AA3H (1 μM) for 4 h. Lysosomes and nuclei of AA3H-treated cells were stained with LysoTracker (Life Technologies, Carlsbad, CA, USA; 1 μg/mL for 30 min) and Hoechst (1 μg/mL for 5 min), respectively. For staining ER and Golgi, CellLight Reagents BacMam 2.0 (Life Technologies, Carlsbad, CA, USA) were used. Cells were cultured in confocal dishes for 24 h, transfected with red fluorescence protein (RFP) for 24 h, and treated with AA3H (1 μM) for 4 h. After washing two times with PBS, the intracellular fluorescence of HeLa cells was imaged using confocal laser scanning microscopy (LSM 700, Carl Zeiss, Jena, Germany).

[7] = Liposome experiment (interaction of FITC-labeled AA3H with phospholipid liposomes); format: binding; conditions: liposomes in HBS pH 7.5, 4 h at room temperature, flow cytometric analysis (Supplementary Fig. S3)
Description: Liposome experiment. Phospholipids dissolved in chloroform (L-alpha-phosphatidylcholine: PC, L-alpha-phosphatidylserine: PS, and L-alpha-phosphatidylethanolamine: PE) were purchased 1 from Avanti Polar Lipids. Liposomes were prepared by following a reported procedure . After preparation of phospholipid mixtures with appropriate molar ratios (PC/PS: 8/2 and PC/PE/PS: 4/4/2), the mixtures were dried by removing the solvent. The residues were dissolved in HBS (20 mM HEPES/NaOH, pH 7.5, 100 mM NaCl, 0.02% (w/v) sodium azide) and vortexed to completely resuspend phospholipids. Then, the suspension was sonicated until to have clear solution. The prepared vesicles was incubated with AA3H-CPP (FITC labelled) for 4 h at room temperature and the mixture was centrifuged at 16,000×g for 10 min at 4°C before flow cytometric analysis.
Supplementary Fig. S3. (A) Sizes of liposomes determined by dynamic light scattering. (B) Flow cytometric analysis on the interaction between FITC-labeled AA3H and liposomes. […]

[8] = system: cells; test: Uptake kinetics (half-time of internalization); format: cell-based; conditions: uptake kinetics of AA3H

Substance: {FITC}-MATKGGTVKA [AA4H, FITC-labeled N-terminus peptide of an annexin A isoform]
- order of potency in intracellular translocation (dose-dependent uptake) ([1]; HeLa cells, flow cytometry): AA3H > AA5H > AA8H > AA13H > AA4H
- cellular uptake efficiency ([1]; HeLa cells): significant cellular uptake efficiency

Substance: {FITC}-MGNRHAKASS [AA13H, FITC-labeled N-terminus peptide of an annexin A isoform]
- order of potency in intracellular translocation (dose-dependent uptake) ([1]; HeLa cells, flow cytometry): AA3H > AA5H > AA8H > AA13H > AA4H
- cellular uptake efficiency ([1]; HeLa cells): significant cellular uptake efficiency

Substance: lipopolysaccharide [LPS]
- IL-6 released into the culture medium [2]: 373 pg/mL

Substance: {FITC}-RRRQQQQQQRRR [PLP, protein linking peptide containing multiple arginine residues, FITC-labeled]
- cellular uptake of PLP-conjugated CPPs ([1]; flow cytometry, fluorescence label of the peptide (Fig. 8B)): not as high as with AA3H conjugation

Substance: {FITC}-MAWWKSWIEQ [AA8H, FITC-labeled N-terminus peptide of an annexin A isoform]
- order of potency in intracellular translocation (dose-dependent uptake) ([1]; HeLa cells, flow cytometry): AA3H > AA5H > AA8H > AA13H > AA4H
- cellular uptake efficiency ([1]; HeLa cells): significant cellular uptake efficiency

Substance: FITC-YGRKKRRQRRR [TAT47-58, widely used conventional CPP, TAT peptide of human immunodeficiency virus, FITC-labeled, reference compound]
- delivery efficiency in the presence of serum [3]: significantly lowered efficiency
- t0.5 (half-time of internalization) [4]: 1 min

Substance: {FITC}-MAQVLRGTVT [AA5H, FITC-labeled N-terminus peptide of an annexin A isoform]
- order of potency in intracellular translocation (dose-dependent uptake) ([1]; HeLa cells, flow cytometry): AA3H > AA5H > AA8H > AA13H > AA4H
- cellular uptake efficiency ([1]; HeLa cells): significant cellular uptake efficiency

Substance: {FITC}-MASIWVGHRG [AA3H]
- order of potency in intracellular translocation (dose-dependent uptake) ([1]; HeLa cells, flow cytometry): AA3H > AA5H > AA8H > AA13H > AA4H
- cellular uptake efficiency ([1]; HeLa cells): significant cellular uptake efficiency
- cellular uptake compared with the fully cationic R9 peptide ([1]; HeLa cells (Supplementary Fig. S1A)): much lower cellular uptake
- uptake efficiency compared with TAT ([1]; HeLa cells, flow cytometry (Fig. 2C)): delivered into the cells better than TAT
- decrease of intracellular delivery after heparin sulfate ([5]; 50 μg/mL heparin sulfate 30 min pre-treatment, then AA3H 4 h, relative to delivery without heparin, average of three): 45%
- cellular uptake at 4 °C lower than at 37 °C ([5]; 4 °C for 2 h vs 37 °C control, flow cytometry): approximately 66%
- decrease of uptake with dynasore ([5]; 30-min pre-treatment, 30 μg dynasore, AA3H 1 μM): 57%
- decrease in uptake with chlorpromazine (CPZ) ([5]; 30-min pre-treatment, 50 μM CPZ, AA3H 1 μM, serum-containing medium): 23.5%
- effect of EIPA (macropinocytosis inhibitor) on peptide delivery ([5]; 30-min pre-treatment, 50 μM EIPA, AA3H 1 μM): significant inhibition of peptide delivery
- increase in mean fluorescence intensity with chloroquine (CQ) ([5]; 30-min pre-treatment, 100 μM CQ, AA3H 1 μM, ascribed to dequenching of fluorescein, not to uptake): 20.5%
- reduction of uptake with methyl-β-cyclodextrin (MβCD) ([5]; 30-min pre-treatment, 1 mM MβCD, AA3H 1 μM): 32%
- reduction of uptake with nystatin (NYS) ([5]; 30-min pre-treatment, AA3H 1 μM): 15%
- subcellular localization [6]: localized in the cytoplasm but not in the nucleus
- delivery efficiency in the presence of serum [3]: not considerably affected
- binding to phospholipids known to interact with annexin III [7]: found to also bind AA3H
- t0.5 (half-time of internalization) [8]: ~ 2 h
